Results reported in US4098823A, “Monospiroalkyl derivatives of prostaglandins” (Miles Laboratories, Inc., priority 1977, dated 1978).
Converted amounts (≈) assume the structure as drawn.

Assays:
rat colon = assay: Cascade Assay, colon (smooth muscle stimulant effect); type: cell-based; settings: superfused, 50% of maximum (PGF2α)
Method: (§1) The smooth muscle stimulant effects of test compounds were determined simultaneously in four different tissues that are known to be reactive to naturally occurring prostaglandins. Segments of rat stomach fundus, rat colon, chick rectum and rabbit aortic strip were obtained as described by: Vane, J. R., Brit. J. Pharmacol., 12: 344 (1957); Regoli, D. and Vane, J. R., Brit. J. Pharmacol., 23: 351 (1964); Mann, M. and West, G. B., Brit. J. Pharmacol., 5: 173 (1950); and Furchgott, R. F. and Bhadrakom, R., J. Pharmacol. Exper. Ther., 108: 129 (1953). One end of each preparation was tied to the bottom of a 10 ml tissue chamber and the other to a force displacement transducer (Grass FT-03) for continuous tension recording. The stomach, colon, and rectum segments were stretched to an initial tension of 1 g, while the aortic strip was subjected to 4 g. All preparations were left undisturbed for 1 hour prior to testing. The chambers were equipped with an external jacket through which water, maintained at 40° C, was circulated. Preparations were arranged one beneath the other in descending order (aorta, stomach, colon and rectum). Provision was made for bathing the four tissues successively so that they were superfused with the same fluid (Gaddum, H. J., Brit. J. Pharmacol., 6: 321 [1953]. The bathing fluid consisted of: Krebs bicarbonate solution aerated with a mixture of 95% O2 and 5% CO2 and warmed at 37° C; atropine sulphate (0.1 mcg/ml), phenoxybenzamine hydrochloride (0.1 mcg/ml), propranolol hydrochloride (3.0 mcg/ml), methysergide maleate (0.2 mcg/ml) and brompheniramine maleate (0.1 mcg/ml) were added to eliminate the possibility of smooth muscle responses being due to stimulation of cholinergic, adrenergic, serotonin or histamine receptors. The fluid was circulated by means of a roller pump and was allowed to drip over the preparations at a rate of 10 ml/minute.
(§2) Test compounds were diluted from stock solutions so as to administer quantities ranging from 0.001 100,000 ng in a volume of 0.5 ml. The compounds were applied by dripping on the uppermost tissue, at intervals of 10 to 20 minutes. Maximal increases in tension after each dose were measured and the results were used to plot dose-response curves. ED50 data (doses necessary to produce a response 50% of maximum) were then calculated graphically for each tissue.
(§3) Activity in each tissue was scored according to the following scale: […]

chick rectum = assay: Cascade Assay, rectum (smooth muscle stimulant effect); type: cell-based; settings: superfused, 50% of maximum (PGE1)
Method: as §1, §2, §3

Rat Uterus = assay: Effects on the Rat Uterus in Vitro; type: cell-based; settings: for EC50: Rattus norvegicus, read-out: Test F Rat Uterus, Activity Value (ED50)
Method: The uterine stimulant effect of test compounds was determined in segments of uterus obtained from rats (140-160 g) pretreated subcutaneously with 1 mg/kg of diethyl-stilbesterol 18 hours before the experiment. The tissues were placed in 10 ml chambers filled with de-Jalon solution at 29° C, were aerated and bubbled with 95% O2 and 5% CO2, and were prepared for isometric recording with force displacement transducers. Preparations were stretched to an initial tension of 1 g and were left undisturbed for 30 minutes. Carbachol (1 mcg/ml) was then added to the bath and a response was recorded. After a 10 minute interval the carbachol procedure was repeated. Responses to increasing concentrations of a test compound (0.001 to 10 mcg/ml with one log intervals) were then recorded every 10 minutes. Preparations were washed four times after each response. All doses of compounds were administered in a 0.1 ml volume. Because it has been observed that the magnitude of the second response to carbachol (approximately 10% greater than the first) is close to the maximal response of the tissue, such value was taken as a measure of the sensitivity of a particular segment. Responses to each concentration of the test compound were expressed in terms of percentage of the second response to carbachol and the ED50 (dose producing a response 50% that of carbachol) was calculated graphically. Activity was scored according to the following scale: […]

Gastric Secretion = assay: Effects on Gastric Secretion in the Rat; type: in vivo; settings: pylorus-ligated rat, subcutaneous, 2 x 1.5 mg/kg (total 3.0 mg/kg), 4 hours
Method: A procedure based on that described by Lipmann (J. Pharm. Pharmacol., 21:335 [1968]) was used to assess the influence of test compounds on gastric secretion. Rats of one sex weighing 150 to 200 g were randomly divided into groups of six animals each and fasted for 48 hours previously to the experiments, water being available adlibitum. The animals were anesthetized with ether, the abdomen was opened through a midline incision and the pylorus was ligated. Test compounds were diluted from stock solution so as to administer a dose of 1.5 mg/kg in a volume equivalent to 1 ml/kg. Subcutaneous injections were applied immediately after surgery and again 2 hours later, so that a total dose of 3.0 mg/kg was administered. Dilutions were made with phosphate buffer (pH 7.38) as recommended by Lee et al. (Prostaglandins 3:29 [1973]), in order to insure adequate stability of drugs at the subcutaneous depot. Each compound was tested in one group of rats; an additional control group received only the vehicle.
Four hours after pyloric ligation the animals were killed with ether, the cardias ligated and the stomachs removed. The volume of gastric secretion was measured and the contents centrifuged at 500 rpm for 10 minutes. Total acid in the supernatant was titrated against a 0.1 N sodium hydroxide solution and the amount expressed in mEq.
Volume and total acid values of the treated group were compared with those of the controls by the "T" test. Antisecretory activity was scored according to the following scale: […]

rabbit aortic strip = assay: Cascade Assay, aorta (smooth muscle stimulant effect); type: cell-based; settings: superfused, 50% of maximum (PGA2)
Method: as §1, §2, §3

rat stomach fundus = assay: Cascade Assay, stomach (smooth muscle stimulant effect); type: cell-based; settings: superfused, 50% of maximum (PGE1)
Method: as §1, §2, §3

[1] = tested on: Blood Pressure and Heart Rate; assay: Effects on Blood Pressure and Heart Rate in the Anesthetized Cat; type: in vivo; settings: intravenous, 0.01 to 10.0 mcg/kg, scored only on hypotension;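 further: Anesthetized cats given intravenous doses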
Method: The acute effects of test compounds on blood pressure and heart rate were determined in cats of either sex anesthetized with a mixture of pentobarbital sodium (35 mg/kg, i.v.) and barbital sodium (100 mg/kg, i.v.). Cannulas were placed in the trachea to allow adequate spontaneous ventilation, in a femoral artery for blood pressure recording with a strain gage transducer, and in a saphenous vein for drug administration. Heart rate was recorded by means of a cardiotachometer driven by the R wave of the electrocardiogram. After a period of 10 minutes of stable recordings of blood pressure and heart rate, the test compound was administered intravenously at doses increasing from 0.01 to 10.0 mcg/kg, spaced one log and injected at 10 minutes intervals. All doses were injected in a volume of 0.1 ml/kg. Modifications of blood pressure and heart rate induced by the test compound were expressed both in absolute units (mmHg and beats/minutes) and as percent of values recorded immediately before administration of each dose. Biphasic responses were tabulated in the order in which they occur. The direction of the observed changes was also noted (+ for increases and - for decreases).
Activity of compounds in this test was judged only on the basis of the degree of hypotension observed. Thus, the ED50 mmHg (dose decreasing blood pressure by 50 mmHg) was calculated graphically and the compound scored according to the following scale: […]

[2] = in vitro, 29° C, response 50% that of carbachol

| SMILES | Test E Cascade Assay, Colon, Activity Value (ED50) (rat colon) | Test E Cascade Assay, Rectum, Activity Value (ED50) (chick rectum) | EC50 (Rat Uterus; [2]) | Test B Activity Value (% decrease in acidity, inhibition of gastric secretion) (Gastric Secretion) | Test E Cascade Assay, Aorta, Activity Value (ED50) (rabbit aortic strip) | Test E Cascade Assay, Stomach, Activity Value (ED50) (rat stomach fundus) | magnitude of second response to carbachol relative to the first (Rat Uterus; carbachol 1 mcg/ml, second response greater than the first) | Test D Activity Value (ED50 mmHg, decrease in blood pressure) [1] | Test F Rat Uterus, Activity Value (ED50) (Rat Uterus; [2]) |
| --- | --- | --- | --- | --- | --- | --- | --- | --- | --- |
| COC(=O)CCCCCC[C@H]1C(=O)C[C@@H](O)[C@@H]1/C=C/[C@H](O)C1(C)CC2(CCC2)C1 [TR-4842, Methyl 7-{3R-hydroxy-5-oxo-2R-[3S-hydroxy-3-(2-methylspiro[3.3]hept-2-yl)-1E-propenyl]cyclopent-1R-yl}heptanoate] | 0 (>10000) | 0 (>10000) | > 10 µg/mL | 0 (<26) | 0 (>10000) | 0 (>10000) | – | – | – |
| C[N+](C)(C)CCOC(N)=O [carbachol, reference compound] | – | – | – | – | – | – | approximately 10% | – | – |
| CCOC(=O)CCC/C=C\C[C@H]1C(=O)C[C@@H](O)[C@@H]1/C=C/[C@H](O)C1CC2(CCC2)C1 [TR-4726, Ethyl 7-{3R-hydroxy-5-oxo-2R-[3R-hydroxy-3-(spiro[3.3]hept-2-yl)-1E-propenyl]cyclopent-1R-yl}hept-5Z-enoate] | 0 (>10000) | 0 (>10000) | > 10 µg/mL | 0 (<26) | 0 (>10000) | 0 (>10000) | – | – | – |
| CC1([C@H](O)/C=C/[C@H]2[C@H](O)CC(=O)[C@@H]2CCCCCCCO)CC2(CCC2)C1 [TR-4852, 7-{3R-hydroxy-5-oxo-2R-[3R-hydroxy-3-(2-methylspiro[3.3]hept-2-yl)-1E-propenyl]cyclopent-1R-yl}heptan-1-ol] | 0 (>10000) | 0 (>10000) | 0.101 to 1 µg/mL (≈ 0.267 to 2.64 µM) | 2 (26-50, significant) | 0 (>10000) | 0 (>10000) | – | – | – |
| CC1([C@@H](O)/C=C/[C@H]2[C@H](O)CC(=O)[C@@H]2CCCCCCCO)CC2(CCC2)C1 [TR-4841, 7-{3R-hydroxy-5-oxo-2R-[3S-hydroxy-3-(2-methylspiro[3.3]hept-2-yl)-1E-propenyl]cyclopent-1R-yl}heptan-1-ol] | 0 (>10000) | 0 (>10000) | > 10 µg/mL | 0 (<26) | 0 (>10000) | 0 (>10000) | – | – | – |
| O=C1C[C@@H](O)[C@H](/C=C/[C@H](O)C2CC3(CCC3)C2)[C@H]1CCCCCCCO [TR-4713, 7-{3R-hydroxy-5-oxo-2R-[3R-hydroxy-3-(spiro[3.3]hept-2-yl)-1E-propenyl]cyclopent-1R-yl}heptan-1-ol] | 0 (>10000) | 1 (1001 - 10000) | > 10 µg/mL | 4 (76-100) | 0 (>10000) | 0 (>10000) | – | – | – |
| COC(=O)CCCCCC[C@H]1C(=O)C=C[C@H]1/C=C/[C@H](O)C1CC2(CCC2)C1 [TR-4127, Methyl 7-{5-oxo-2R-[3R-hydroxy-3-(spiro[3.3]hept-2-yl)-1E-propenyl]cyclopent-3-en-1R-yl}hepanoate] | 0 (>10000) | 0 (>10000) | – | – | 0 (>10000) | 0 (>10000) | – | 0 (>10.0) | 0 (>10) |
| COC(=O)CCC/C=C\C[C@H]1C(=O)CCC[C@@H]1/C=C/[C@H](O)C1CC2(CCC2)C1 (relative stereo) [TR-4759, dl Methyl-7-{6-oxo-2R-[3R-hydroxy-3-(spiro[3.3]hept-2-yl)-1E-propenyl]cyclohex-1R-yl}hept-5Z-enoate] | 0 (>10000) | 0 (>10000) | > 10 µg/mL | 0 (<26) | 0 (>10000) | 0 (>10000) | – | – | – |
| CCOC(=O)CCC/C=C\C[C@H]1C(=O)C[C@@H](O)[C@@H]1/C=C/[C@@H](O)C1CC2(CCC2)C1 [TR-4727, Ethyl 7-{3R-hydroxy-5-oxo-2R-[3S-hydroxy-3-(spiro[3.3]hept-2-yl)-1E-propenyl]cyclopent-1R-yl}hept-5Z-enoate] | 0 (>10000) | 0 (>10000) | > 10 µg/mL | 0 (<26) | 0 (>10000) | 0 (>10000) | – | – | – |
| COC(=O)CCC/C=C\C[C@H]1C(=O)CCC[C@@H]1/C=C/[C@@H](O)C1CC2(CCC2)C1 (relative stereo) [TR-4758, dl Methyl-7-{6-ozo-2R-∂3S-hydroxy-3-(spiro[3.3]hept-2-yl)-1E-propenyl]cyclohex-1R-yl}hept-5Z-enoate] | 0 (>10000) | 0 (>10000) | > 10 µg/mL | 0 (<26) | 0 (>10000) | 0 (>10000) | – | – | – |
